Our source for the IC50 values is ChEMBL document CHEMBL4418314, “Cyano-substituted heterocycles with activity as inhibitors of usp30” (2018).

Molecules are shown by their SMILES.

As usually defined, the IC50 is the point on the concentration scale where inhibition reaches its midpoint. Read a high IC50 as lower potency.

In this experiment the target is T1, Ubiquitin carboxyl-terminal hydrolase 30 (Homo sapiens, UniProt Q70CQ3).
T1 sequence (Q70CQ3 whole entry): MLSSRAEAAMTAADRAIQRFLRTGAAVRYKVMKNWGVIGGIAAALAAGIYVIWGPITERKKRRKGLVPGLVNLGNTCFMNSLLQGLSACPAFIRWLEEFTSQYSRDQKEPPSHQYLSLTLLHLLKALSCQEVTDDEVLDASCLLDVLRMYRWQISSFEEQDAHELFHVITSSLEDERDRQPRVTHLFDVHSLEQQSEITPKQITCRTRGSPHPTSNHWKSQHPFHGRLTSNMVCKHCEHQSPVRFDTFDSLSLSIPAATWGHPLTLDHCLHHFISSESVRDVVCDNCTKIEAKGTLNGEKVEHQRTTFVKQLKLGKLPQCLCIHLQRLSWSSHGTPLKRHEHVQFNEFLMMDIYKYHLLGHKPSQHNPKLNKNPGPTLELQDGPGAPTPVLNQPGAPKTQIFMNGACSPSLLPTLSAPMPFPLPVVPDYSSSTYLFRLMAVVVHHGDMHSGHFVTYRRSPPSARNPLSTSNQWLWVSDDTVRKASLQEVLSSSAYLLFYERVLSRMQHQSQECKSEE
Kind of experiment: Inhibition of untagged human USP30 catalytic domain (57 to 517 residues) expressed in Escherichia coli using TAMRA labeled ubiquitin peptide as substrate preincubated for 30 min followed by substrate addition and measured after 2 hrs by fluorescence polarization assay. Background: Polarisation of emitted light reports the rotation of a fluorescent probe.

The compound `N#CN1CCC[C@](F)(C(=O)Nc2cc(-c3cccc(C(F)(F)F)c3)on2)C1` gave an IC50 of less than 0.1 µM.
